Results from ChEMBL document CHEMBL4715897, “A new 1-nitro-9-aminoacridine derivative targeting yeast topoisomerase II able to overcome fluconazole-resistance” (2021).
Values after ≈ are worked out from the molar mass of the structure shown. Active and inactive are the calls of the source. The rule behind the calls is not given here.

Experiments:
[1] = test system: Candida albicans; assay: Antifungal activity against fluconazole-sensitive Candida albicans B3 assessed as reduction in microbial growth; format: functional
[2] = test system: Candida albicans; assay: Antifungal activity against fluconazole-resistant Candida albicans B4 assessed as reduction in microbial growth; format: functional
[3] = test system: Saccharomyces cerevisiae; assay: Fungicidal activity against Saccharomyces cerevisiae ATCC 9763; format: functional
[4] = test system: Candida albicans; assay: Antifungal activity against Candida albicans ATCC 10231 assessed as reduction in microbial growth; format: functional
[5] = test system: Pichia kudriavzevii; assay: Fungicidal activity against Candida krusei DSM 6128; format: functional
[6] = test system: Candida albicans; assay: Growth inhibition of Candida albicans ATCC 10231 assessed as reduction in yeast to mycelium formation by measuring reduction in hyphal growth at concentration of 0.25 MIC after 3 hrs in G1cNAc medium by light microscopic method relative to control; format: functional, organism-based
[7] = test system: Candida albicans; assay: Antifungal activity against fluconazole-sensitive Candida albicans Gu4 assessed as reduction in microbial growth; format: functional
[8] = test system: Pichia kudriavzevii; assay: Antifungal activity against Candida krusei ATCC 6258 assessed as reduction in microbial growth; format: functional
[9] = test system: Nakaseomyces glabratus; assay: Antifungal activity against Candida glabrata ATCC 90030 assessed as reduction in microbial growth; format: functional
[10] = test system: Candida parapsilosis; assay: Antifungal activity against Candida parapsilosis ATCC 22019 assessed as reduction in microbial growth; format: functional; conditions: Lodderomyces parapsilosis
[11] = test system: Candida albicans; assay: Growth inhibition of Candida albicans ATCC 10231 assessed as reduction in yeast to mycelium formation by measuring reduction in hyphal growth at concentration of 0.25 MIC after 3 hrs in YPG medium by light microscopic method relative to control; format: functional, organism-based
[12] = Ratio of MFC for fungicidal activity against Saccharomyces cerevisiae ATCC 9763 to MIC for antifungal activity against Saccharomyces cerevisiae ATCC 9763; format: functional
[13] = test system: Saccharomyces cerevisiae; assay: Inhibition of Saccharomyces cerevisiae DNA topoisomerase 2 assessed as decrease in relaxation of supercoiled DNA using supercoiled pBR322 plasmid DNA at 100 to 150 uM gel electrophoresis method; conditions: dose 100-150 µM
[14] = test system: Saccharomyces cerevisiae; assay: Antifungal activity against Saccharomyces cerevisiae ATCC 9763 assessed as reduction in microbial growth; format: functional
[15] = test system: Candida albicans; assay: Antifungal activity against fluconazole-sensitive Candida albicans F2 assessed as reduction in microbial growth; format: functional
[16] = test system: Candida albicans; assay: Antifungal activity against fluconazole-resistant Candida albicans Gu5 assessed as reduction in microbial growth; format: functional
[17] = test system: Candida albicans; assay: Growth inhibition of Candida albicans ATCC 10231 assessed as reduction in yeast to mycelium formation by measuring reduction in hyphal growth at 0.25 MIC after 3 hrs by light microscopic method relative to control; format: functional
[18] = test system: Candida albicans; assay: Antifungal activity against fluconazole-resistant Candida albicans F5 assessed as reduction in microbial growth; format: functional
[19] = test system: Nakaseomyces glabratus; assay: Fungicidal activity against Candida glabrata DSM 11226; format: functional
[20] = test system: Candida albicans; assay: Antibiofilm activity against Candida albicans ATCC 10231 at concentration of 0.25 MIC by XTT assay; format: functional, organism-based
[21] = test system: Saccharomyces cerevisiae; assay: Inhibition of Saccharomyces cerevisiae DNA topoisomerase 2 assessed as decrease in relaxation of supercoiled DNA using supercoiled pBR322 plasmid DNA at 1 to 200 uM gel electrophoresis method; conditions: dose 1-200 µM
[22] = test system: Candida albicans; assay: Fungicidal activity against Candida albicans ATCC 10231; format: functional
[23] = test system: Candida albicans; assay: Antifungal activity against Candida albicans CNCM 1180-79 assessed as reduction in microbial growth incubated for 72 hrs by photometric method; format: functional
[24] = test system: Escherichia coli; assay: Antibacterial activity against Escherichia coli ATCC 10536 assessed as reduction in microbial growth incubated for 48 hrs by photometric method; format: functional
[25] = test system: Staphylococcus aureus; assay: Antibacterial activity against Staphylococcus aureus ATCC 9144 assessed as reduction in microbial growth incubated for 48 hrs by photometric method; format: functional
[26] = test system: Candida parapsilosis; assay: Fungicidal activity against Candida parapsilosis DSM 5784; format: functional; conditions: Lodderomyces parapsilosis
[27] = test system: Candida; assay: Antifungal activity against Candida; format: functional

O=[N+]([O-])c1cccc2nc3ccccc3c(NCCNCCNCCNc3c4ccccc4nc4cccc([N+](=O)[O-])c34)c12
MIC90 [1]: > 64 µg/mL | MIC90 [2]: > 64 µg/mL | MFC [3]: 16 µg/mL (≈ 27.1 µM) | MIC90 [4]: 64 µg/mL | MFC [5]: 32 µg/mL (≈ 54.2 µM) | growth inhibition (GI) [6]: inactive | MIC90 [7]: > 64 µg/mL | MIC90 [8]: 32 µg/mL | MIC90 [9]: 32 µg/mL | MIC90 [10]: 32 µg/mL | growth inhibition (GI) [11]: Active | Ratio [12]: >=1 | inhibition [13]: Active | MIC90 [14]: 8 µg/mL | MIC90 [15]: > 64 µg/mL | MIC90 [16]: > 64 µg/mL | growth inhibition (GI) [17]: 100% | MIC90 [18]: > 64 µg/mL | MFC [19]: 32 µg/mL (≈ 54.2 µM) | Activity [20]: Active

OC(Cn1cncn1)(Cn1cncn1)c1ccc(F)cc1F [FLUCONAZOLE]
MIC90 [1]: 1 µg/mL | MIC90 [2]: 16 µg/mL | MIC90 [4]: 8 µg/mL | MIC90 [7]: 4 µg/mL | MIC90 [15]: 8 µg/mL | MIC90 [16]: > 64 µg/mL | MIC90 [18]: > 64 µg/mL

CN(CCCNc1c2ccccc2nc2cccc([N+](=O)[O-])c12)CCCNc1c2ccccc2nc2cccc([N+](=O)[O-])c12
MFC [3]: 4 µg/mL (≈ 6.78 µM) | MIC90 [4]: > 16 µg/mL | MIC90 [8]: > 16 µg/mL | MIC90 [9]: > 16 µg/mL | MIC90 [10]: > 16 µg/mL | Ratio [12]: >=1 | MIC90 [14]: 4 µg/mL

Cc1ccc([N+](=O)[O-])c2c(NCCCN(C)CCCNc3c4ccccc4nc4c(C)ccc([N+](=O)[O-])c34)c3ccccc3nc12
MFC [3]: 8 µg/mL (≈ 13 µM) | MIC90 [4]: > 16 µg/mL | MIC90 [8]: > 16 µg/mL | MIC90 [9]: > 16 µg/mL | MIC90 [10]: > 16 µg/mL | Ratio [12]: >=1 | MIC90 [14]: 8 µg/mL

Cc1ccc([N+](=O)[O-])c2c(NCCCNC(=O)[C@@H](N)CCCCN)c3ccccc3nc12
MIC90 [1]: > 64 µg/mL | MIC90 [2]: > 64 µg/mL | MFC [3]: 32 µg/mL (≈ 73 µM) | MIC90 [4]: 32 µg/mL | growth inhibition (GI) [6]: inactive | MIC90 [7]: > 64 µg/mL | MIC90 [8]: 64 µg/mL | MIC90 [9]: > 64 µg/mL | inhibition [21]: Active | MIC90 [10]: > 64 µg/mL | Ratio [12]: >=1 | MIC90 [14]: 32 µg/mL | MIC90 [15]: > 64 µg/mL | MIC90 [16]: > 64 µg/mL | growth inhibition (GI) [17]: 100% | MIC90 [18]: > 64 µg/mL

Cc1ccc([N+](=O)[O-])c2c(NCCOC(=O)[C@@H](N)CCCCN)c3ccccc3nc12
MIC90 [1]: 16 µg/mL | MIC90 [2]: > 64 µg/mL | MFC [3]: 2 µg/mL (≈ 4.7 µM) | MIC90 [4]: 4 µg/mL | MFC [5]: 32 µg/mL (≈ 75.2 µM) | MIC90 [7]: 8 µg/mL | MIC90 [8]: 16 µg/mL | MIC90 [9]: 32 µg/mL | inhibition [21]: inactive | MIC90 [10]: 64 µg/mL | Ratio [12]: >=1 | MIC90 [14]: 1 µg/mL | MFC [22]: 16 µg/mL (≈ 37.6 µM) | MIC90 [15]: 8 µg/mL | MIC90 [16]: > 64 µg/mL | MIC90 [18]: > 64 µg/mL | MFC [19]: 64 µg/mL (≈ 150 µM) | Activity [20]: inactive

Nc1cccc2nc3ccccc3c(NCCO)c12
MIC90 [4]: > 64 µg/mL | MIC90 [8]: > 64 µg/mL | MIC90 [9]: > 64 µg/mL | MIC90 [10]: > 64 µg/mL | MIC90 [14]: > 64 µg/mL

COc1cc(NS(C)(=O)=O)ccc1Nc1c2ccccc2nc2ccccc12
inhibition [13]: Active

O=[N+]([O-])c1cccc2nc3ccccc3c(NCCO)c12
MIC90 [1]: 2 µg/mL | MIC [23]: 50 µg/mL | MIC90 [2]: > 64 µg/mL | MFC [3]: 0.25 µg/mL (≈ 0.882 µM) | MIC90 [4]: 2 µg/mL | MFC [5]: 32 µg/mL (≈ 113 µM) | growth inhibition (GI) [6]: inactive | MIC90 [7]: 4 µg/mL | MIC [24]: 50 µg/mL | MIC90 [8]: 8 µg/mL | MIC90 [9]: 16 µg/mL | inhibition [21]: inactive | MIC90 [10]: 32 µg/mL | growth inhibition (GI) [11]: inactive | Ratio [12]: >=1 | MIC90 [14]: 0.25 µg/mL | MIC [25]: 50 µg/mL | MFC [26]: 64 µg/mL (≈ 226 µM) | MFC [22]: 4 µg/mL (≈ 14.1 µM) | MIC90 [15]: 4 µg/mL | MIC90 [16]: 32 µg/mL | growth inhibition (GI) [17]: inactive | MIC90 [18]: > 64 µg/mL | MFC [19]: 32 µg/mL (≈ 113 µM) | Activity [20]: Active

Cc1ccc([N+](=O)[O-])c2c(NCCOC(=O)CCCCC(=O)OCCNc3c4ccccc4nc4c(C)ccc([N+](=O)[O-])c34)c3ccccc3nc12
MIC90 [4]: > 32 µg/mL | MIC90 [8]: > 32 µg/mL | MIC90 [9]: > 32 µg/mL | MIC90 [10]: > 32 µg/mL | MIC90 [14]: > 32 µg/mL

NCCCC[C@H](N)C(=O)OCCNc1c2ccccc2nc2cccc([N+](=O)[O-])c12
MIC90 [1]: 4 µg/mL | MIC90 [2]: > 64 µg/mL | MFC [3]: 1 µg/mL (≈ 2.43 µM) | MIC90 [4]: 4 µg/mL | MFC [5]: 64 µg/mL (≈ 156 µM) | MIC90 [7]: 4 µg/mL | MIC90 [8]: 16 µg/mL | MIC90 [9]: 16 µg/mL | inhibition [21]: inactive | MIC90 [10]: 32 µg/mL | Ratio [12]: >=1 | MIC90 [14]: 0.5 µg/mL | MFC [26]: 128 µg/mL (≈ 311 µM) | MFC [22]: 16 µg/mL (≈ 38.9 µM) | MIC90 [15]: 4 µg/mL | MIC90 [16]: > 64 µg/mL | MIC90 [18]: > 64 µg/mL | MFC [19]: 64 µg/mL (≈ 156 µM) | Activity [20]: Active

NCCCC[C@H](N)C(=O)NCCCNc1c2ccccc2nc2cccc([N+](=O)[O-])c12
MIC90 [1]: 16 µg/mL | MIC90 [2]: 16 µg/mL | MFC [3]: 16 µg/mL (≈ 37.7 µM) | MIC90 [4]: 8 µg/mL | growth inhibition (GI) [6]: Active | MIC90 [7]: 32 µg/mL | MIC90 [8]: 64 µg/mL | MIC90 [9]: 32 µg/mL | inhibition [21]: Active | MIC90 [10]: 32 µg/mL | growth inhibition (GI) [11]: Active | Ratio [12]: >=1 | inhibition [13]: Active | MIC90 [14]: 16 µg/mL | MFC [26]: > 128 µg/mL | MFC [22]: 16 µg/mL (≈ 37.7 µM) | MIC90 [15]: 64 µg/mL | MIC90 [16]: 32 µg/mL | growth inhibition (GI) [17]: Active | MIC90 [18]: 64 µg/mL | MFC [19]: > 128 µg/mL | Activity [20]: Active

COc1cc([C@@H]2c3cc4c(cc3[C@@H](O[C@@H]3O[C@@H]5CO[C@@H](C)O[C@H]5[C@H](O)[C@H]3O)[C@H]3COC(=O)[C@H]23)OCO4)cc(OC)c1O [ETOPOSIDE]
MIC [27]: 50 µg/mL (≈ 85 µM)

Cc1ccc(N)c2c(NCCO)c3ccccc3nc12
MIC90 [4]: > 64 µg/mL | MIC90 [8]: 64 µg/mL | MIC90 [9]: 64 µg/mL | MIC90 [10]: 64 µg/mL | MIC90 [14]: 64 µg/mL

Cc1ccc([N+](=O)[O-])c2c(NCCNCCNCCNc3c4ccccc4nc4c(C)ccc([N+](=O)[O-])c34)c3ccccc3nc12
MIC90 [4]: > 32 µg/mL | MIC90 [8]: > 32 µg/mL | MIC90 [9]: > 32 µg/mL | MIC90 [10]: > 32 µg/mL | MIC90 [14]: 32 µg/mL

O=C(CCCCC(=O)OCCNc1c2ccccc2nc2cccc([N+](=O)[O-])c12)OCCNc1c2ccccc2nc2cccc([N+](=O)[O-])c12
MIC90 [4]: > 16 µg/mL | MIC90 [8]: > 16 µg/mL | MIC90 [9]: > 16 µg/mL | MIC90 [10]: > 16 µg/mL | MIC90 [14]: > 16 µg/mL
